Measurements: US11058654B2, “Compositions and methods for the treatment of hemoglobinopathies and thalassemias” (AXCELLA HEALTH INC., priority 2018, dated 2021)
Where two headings read alike, the source gives them in different places.

Columns and labels:
[1] = test system: RBCs of healthy whole blood; assay: RBC deformability (LORRCA elongation index), ex vivo TBHP oxidation of healthy whole blood; type: cell-based, human; conditions: healthy donor 2, single amino acid treatments, in words
Description: Whole blood from healthy African American and/or Hispanic donors was obtained from Research Blood Components, LLC based on the following donor selection criteria: Adult age (between 18 and 50 years), normal BMI (<30), and absence of other confounding clinical conditions. Whole blood from SCD donors were obtained from BioIVT based on the following donor selection criteria: Patients with genotypes HbSS, HbSC, HbS/β^0 and at least 1-2 months gap since last blood transfusion. Whole blood was shipped on ice on the same day as blood draw. Upon receipt, the blood sample was aliquoted and stored in the refrigerator until used for studies.
RBC deformability measurements were conducted with the Laser Optical Rotational Red Cell Analyzer (LORRCA) from RR Mechatronics in a temperature-controlled environment (37° C.). Briefly, an even layer of RBCs suspended in polyvinylpyrrolidone (PVP) is subjected to shear stress gradient (0.3 to 30 Pa) through two concentric cylinders and the resulting changes in RBC shape or deformability are measured by a laser beam diffraction pattern. The captured images of RBC shape in response to increasing shear stress are then analyzed by the LORRCA program to calculate Elongation Index (EI).
Healthy RBCs have higher deformability≥0.5 EI and SCD RBCs have lower deformability or EI values as studied by LORRCA ektacytometry in the field. […] The induced hemolysis model in this disclosure involves use of tert-butyl hydroperoxide (TBHP) to lower EI of RBCs.
The ex vivo hemolysis study disclosed here involves overnight treatment of whole blood with vehicle as a control and specific amino acids followed by rapid oxidation (5 min) with TBHP. Method for oxidation of whole blood with tert-butyl hydroperoxide has been used in prior literature (Diederich L, et al, Front Physiol. 2018 May 11; 9:332). RBC deformability or shape changes are then measured with LORRCA ektacytometry.
Whole blood aliquots stored in the fridge were brought up to room temperature while gently shaking on a rocker at low speed for an hour to ensure gradual and uniform suspension of red blood cells prior to deformability measurements. Vehicle control used in the study was 1× Dulbecco's […]) and amino acids disclosed herein were added (at either final […] or 2.5 mM concentration as indicated) to corresponding vehicle and amino acid treatment conditions. The samples were then incubated overnight at 37° C. Next day, 25 μL of whole blood was taken from each treatment condition and added to 5 mL Elon ISO viscous solution from RR Mechatronics. The sample was inverted 15-20 times to ensure proper mixing of the treated RBCs with the Elon ISO solution followed by loading the sample on LORRCA and capturing RBC deformability or shape measurements over the applied shear gradient. The remaining whole blood treatments were returned to incubator (37° C.) until deformability measurements were completed for all treatments. To the remaining whole blood treatment samples, TBHP solution (5.0-6.0 M in Decane, Sigma) was added at 2.5 mM final concentration from a 100 mM freshly prepared stock and incubated for further 5 min at 37° C. 25 μL of this TBHP-treated sample was immediately removed at the end of the 5 min incubation and added to the Elon ISO solution for RBC deformability measurement after oxidation. Included in the Tables 13-15 are EI measurements at ½ EImax shear stress 1.69 Pa and EImax shear stress 30 Pa from these studies and FIG. 1 captures EI measurements for all shear stress points for the indicated treatment conditions.

VCAM-1 = VCAM-1 cell integrated intensity in HLMVEC treated with TNFa; type: cell-based, human; conditions: 0.5 ng/mL TNFα; amino acids at 20×; 24 hours; in words
Description: A VEC model was employed to assess the ability of amino acids to influence aspects of vascular dysfunction in SCD. TNFa treatment of healthy donor HLMVEC mimics the SCD disease state and induces expression of adhesion markers ICAM-1 and VCAM-1, and secretion of proinflammatory cytokine IL-6. It is established that levels of ICAM-1, VCAM-1, and IL-6 can contribute to SCD pathology and correlate with the incidence and severity of complications in SCD patients. The VEC model sought to test the ability of amino acids to reduce the TNFa-induced disease phenotype by lowering expression of adhesion markers (ICAM-1 and VCAM-1) and inflammatory cytokines (IL-6) while promoting VEC health and viability.
Primary Human Lung Microvascular Endothelial Cells (HLMVEC; Lonza) were seeded at 6,000 cells per well in Endothelial Cell Growth Basal Medium-2 (Lonza) supplemented with Fetal Bovine Serum (FBS; Lonza), human EGF (Lonza), human VEGF (Lonza), R3-Insulin-like Growth Factor-1 (Lonza), ascorbic acid (Lonza), hydrocortisone (Lonza), human FGF-beta (Lonza), and gentamicin/amphotericin-b (Lonza) in a 96-well plate (Thermo Fisher). The cells were incubated for 45 minutes at room temperature, then incubated overnight at 37° C./5% CO2.
Following overnight incubation, cell were washed once with 150 μL of Dulbecco's phosphate buffered saline (DPBS; Gibco), and then treated with Endothelial Basal Medium MCB-131 (amino acid, glucose, sodium pyruvate, and phenol red free; US Biologicals) containing a defined custom amino acid concentration based on physiological concentrations in blood of patients with SCD (thus recapitulating observed metabolic imbalances such as the depletion of certain essential amino acids including arginine and aspartate and enrichment of certain non-essential amino acids including glutamate and asparagine), dialyzed FBS (Hyclone), human EGF (Lonza), human VEGF (Lonza), R3-Insulin-like Growth Factor-1 (Lonza), ascorbic acid (Lonza), hydrocortisone (Lonza), human FGF-beta (Lonza), and gentamicin/amphotericin-b (Lonza), glucose, 10 mM HEPES, sodium pyruvate, and sodium bicarbonate supplemented with one of the following: • a. PBS (vehicle control), • b. 0.5 ng/mL Tumor Necrosis Factor alpha (TNFα) and PBS, or; • c. 0.5 ng/mL TNFα and amino acid treatments at 20× mean physiological concentrations in plasma based on values published in the Human Metabolome Database (HMDB) in PBS.
After 24 hours of treatment, cells were washed once with 150 μL of DPBS (Gibco), then fixed with 4% paraformaldehyde. […]
Antibody binding was detected by fluorescence microscopy using a high content imager (Molecular Devices). Images were analyzed using MetaXpress 6 software to determine the integrated intensity per cell for each wavelength corresponding to ICAM-1 or VCAM-1.

[2] = Plasma pharmacokinetics after oral gavage in male Sprague-Dawley rats; type: in vivo; set-up: AUC(0-t): concentration or dose not given beside the values; conditions: rat
Experimental: A pharmacokinetic (PK) analysis was performed on plasma concentrations of various combinations of amino acid compounds administered by oral gavage to male Sprague-Dawley rats. Four animals were dosed with RCitNacQCarLHKVS, a test article comprising ten amino acid components: arginine, citrulline, N-acetylcysteine, glutamine, carnitine, leucine, histidine, lysine, valine, and serine (Table 19). Animals were fasted for 2 hours prior to dose administration. Plasma samples were taken immediately pre-dose and 0.5, 1, 2, 3, 4, and 5 hours post-dose.
Bioanalysis of collected plasma samples for amino acid content was performed at Axcella Health using an LC-MS method (Section 2.1). Bioanalytical data were analyzed using noncompartmental analysis with Phoenix® WinNonLin® (v8.1).
An LC/MS method utilizing HILIC chromatography and high-resolution mass spectrometry was used to quantify amino acids in rat plasma. The samples were prepared by protein precipitation and spiked with stable-labeled amino acid internal standard for each analyte. […] QCs, spiked into rat plasma, were utilized to assess the accuracy of the method.
PK parameters of test article components were determined from individual rat plasma concentration-time data by employing a noncompartmental approach using Phoenix WinNonlin® (Version 8.1) software. Nominal times were used to calculate the toxicokinetic parameters. […] This program analyzed data using the standard methods described by Gibaldi and Perrier (see M. Gibaldi and D. Perrier, Pharmacokinetics, 2nd edition, New York: Marcel-Dekker, Inc.; 1982.).

TNFa = assay: LPS-induced TNFa secretion in primary human PBMC-derived macrophages (ELISA); type: cell-based; conditions: Donor 2; in words
Experimental: (§1) Unpurified buffy coats (Research Blood Components) were carefully poured into 50 mL centrifuge tubes and diluted with room temperature Dulbecco's Phosphate Buffered Saline (dPBS) with Calcium and Magnesium (Gibco). Diluted buffy coats were further divided into four total 50 mL centrifuge tubes at 20 mL per tube. Lymphocyte Separation Medium (Corning) was carefully pipetted to the bottom of each centrifuge tube. Mixtures were centrifuged at 850× g for 32 minutes at 20° C. with 0 deceleration and acceleration.
(§2) The PBMC layer was separated from other components after centrifugation and added to new 50 mL centrifuge tube containing 25 mL dPBS. Total volume was brought up to 50 mL with dPBS and centrifuged at 600× g for 10 minutes at 20° C. with acceleration of 9, deceleration of 5. Supernatant was carefully removed from cell pellets. The cell pellets were resuspended using 10 mL dPBS. Total volume was then brought up to 50 mL using dPBS and centrifuged at 450× g for 5 min at 20° C. with acceleration of 9, deceleration of 9. The supernatant removal and cell pellet resuspension was repeated again.
(§3) The supernatant was then carefully removed from cell pellets. Cell pellets were resuspended in 10 mL dPBS without calcium or magnesium and filtered through a 70 uM cell strainer. The total PBMC number was determined using a Cellometer K2 automated cell counter. A total of 5E6 cells were saved for flow cytometric analysis. Remaining cells were centrifuged at 490× g for 5 minutes at 20° C. with acceleration of 9, deceleration of 9.
(§4) CD14+ cells were selected using EasySep™ Human CD14 Positive Selection Kit II ([…] Technologies). Cells were resuspended in cold EasySep™ Buffer ([…] Technologies) at 1×10^8 cells/mL. A total of 100 uL/mL EasySep™ Human CD14 Positive Selection Cocktail II was added to the cell suspension, mixed, and incubated at room temperature for 10 minutes. A total of 100 uL/mL RapidSpheres were added to the mixture and incubated at room temperature for 3 minutes after mixing, then RoboSep buffer was added to bring up the total volume to 10 mL. The mixture in a 15 mL tube was placed in magnet and incubated at room temperature for 3 minutes. Supernatant was discarded and 10 mL fresh EasySep™ buffer was added to 15 mL tube. The addition of RoboSep buffer, mixing, and discarding of supernatant was repeated two more times.
(§5) Negative and positive fractions were centrifuged at 490× g for 5 minutes at 20° C. with acceleration of 9, deceleration of 9, and resuspended in DMEM (Gibco) and 10% Heat Inactivated Fetal Bovine Serum (Atlanta Bio) and Penicillin/Streptomycin. Cells were counted and centrifuged again at […] for 5 minutes at 20° C. with acceleration of 9, deceleration of 9. After centrifugation, cell were resuspended in DMEM (Gibco) and 10% Heat Inactivated Fetal Bovine Serum (Atlanta Bio) and Penicillin/Streptomycin containing 500 U/mL […] and plated at 1-2×10^6 cells/mL on 10 cm tissue culture plates. Cells were kept in 37° C., 5% CO2 in between feedings/harvest.
(§6) Cells were fed every 3-4 days by removing media and unattached cells, centrifuging at 490× g for 5 minutes at 20 C with acceleration of 9, deceleration of 9, and resuspending in fresh DMEM (Gibco) and 10% Heat Inactivated Fetal Bovine Serum (Atlanta Bio) and Penicillin/Streptomycin containing GM-CSF. Resuspended cells were seeded back onto 10 cm tissue culture plates and incubated at 37° C., 5% CO2. Differentiated macrophages were used for subsequent experiments.
(§7) Primary human PMBC derived macrophages were seeded on day 0 at 3.0E4 cells per well in 96-well microplates (ThermoFisher) in Dulbecco's Modified Eagle Medium (DMEM) (Gibco) supplemented with penicillin-streptomycin (Hyclone) and 10% heat inactivated fetal bovine serum (HI-FBS) (Atlanta Bio) and incubated overnight at 37° C., 5% CO2. On day 1, cells were washed once with 150 uL per well DPBS (Gibco) and treated with 75 uL of: • a. […]

IL-6 = assay: LPS-induced IL-6 secretion in primary human PBMC-derived macrophages (ELISA); type: cell-based; conditions: Donor 2; in words
Experimental: as §1, §2, §3, §4, §5, §6, §7

[3] = plasma, Mean, oral gavage of RCitNacQCarLHKVS, male Sprague-Dawley rats, read-out: AUC0-5 h
[4] = plasma, Mean, oral gavage of RCitNacQCarLHKVS, male Sprague-Dawley rats, read-out: Cmax
[5] = plasma, Mean, oral gavage of RCitNacQCarLHKVS, male Sprague-Dawley rats, read-out: Tmax
[6] = male, Sprague-Dawley, in vivo, po

| SMILES | AUC(0-t) [2, 3] [µM·h] | Cmax [2, 4] [µM] | Tmax [2, 5] [h] | other results |
| --- | --- | --- | --- | --- |
| C[N+](C)(C)CC(O)CC(=O)[O-] (stereo not shown) [Car, carnitine] | – | – | – | EI over vehicle control, ½ EImax and EImax [1]: higher than the vehicle; VCAM-1 expression in HLMVEC (VCAM-1): moderate effect |
| NC(=O)NCCC[C@H](N)C(=O)O [Cit, citrulline] | – | – | – | EI over vehicle control, ½ EImax and EImax [1]: higher than the vehicle; VCAM-1 expression in HLMVEC (VCAM-1): moderate effect |
| NC(=O)NCCC[C@H](N)C(=O)O [Citrulline] | 2090 | 583 | 2.5 | – |
| N[C@@H](Cc1c[nH]cn1)C(=O)O [Histidine] | – | – | – | AUC(0-t) [2, 6]: 157 µM·h; Cmax [2, 6]: 41.9 µM; Tmax [2, 6]: 1.25 h |
| CC[C@H](C)[C@H](N)C(=O)O [Isoleucine] | – | – | – | effect on LPS-induced TNFa secretion (TNFa): increased |

More lines, main results first:

| AUC(0-t) [2, 3] [µM·h] | Cmax [2, 4] [µM] | Tmax [2, 5] [h] | SMILES | other results |
| --- | --- | --- | --- | --- |
| 237 | 83.8 | 5 | C[N+](C)(C)CC(O)CC(=O)[O-] (stereo not shown) [Carnitine] | – |
| 586 | 170 | 0.5 | CC(C)C[C@H](N)C(=O)O [Leucine] | effect on LPS-induced IL-6 secretion (IL-6): increased; effect on LPS-induced TNFa secretion (TNFa): increased |
| 1350 | 337 | 1 | NCCCC[C@H](N)C(=O)O [Lysine] | – |
| 1030 | 285 | 2.25 | N[C@@H](CO)C(=O)O [Serine] | – |
| 463 | 126 | 1 | CC(C)[C@H](N)C(=O)O [Valine] | – |
